Measured values as given in patent US20190202820A1, “PROCESS FOR PRODUCING FLUORINATED COMPOUNDS USING ALCOHOL SOLVENT HAVING CARBONYL GROUP” (FUTURECHEM CO., LTD., priority 2018, published 2019).
“Also recorded” adds a separate entry of the source. Like-named read-outs stand apart in the source and are kept apart here.

Assay: Comparison of solubility of the precursor compound according to the kind of reaction solvent (observation with the naked eye)
Assay type: physicochemical
Details: for State of the solution when the temperature dropped to room temperature: t-amyl alcohol, then dropped to room temperature
Protocol: The solubility of FP-CIT, FDG, FLT, FMISO, and FC119S at room temperature and at 60° C. according to the different solvents of methyl 2-hydroxyisobutyrate solvent of the present invention and t-amyl alcohol solvent of the prior art (KR 10-0789847) was investigated.

[1] = reaction solvent methyl 2-hydroxyisobutyrate (present invention), precursor amount 4-20 mg, naked eye
[2] = reaction solvent methyl 2-hydroxyisobutyrate (present invention), room temperature, precursor amount 4-20 mg, naked eye
[3] = reaction solvent t-amyl alcohol (KR 10-0789847), precursor amount 4-20 mg, naked eye
[4] = reaction solvent t-amyl alcohol (KR 10-0789847), room temperature, precursor amount 4-20 mg, naked eye

SMILES	State of the solution after cooling to room temperature (methyl-2-hydroxyisobutyrate, dissolved at 60° C., then cooled to room temperature)	Solubility 60° C. [1]	Solubility Room temperature [2]	Solubility 60° C. [3]	Solubility Room temperature [4]	Solubility Room temperature	State of the solution after cooling to room temperature	State of the solution when the temperature dropped to room temperature (dissolved at 60° C.)	Solubility Room temperature (reaction solvent methyl 2-hydroxyisobutyrate (present invention), room temperature, precursor amount 4-20 mg, naked eye, p-toluenesulfonate)
CN(C(=O)OC(C)(C)C)c1ccc(-c2nc3ccc(OC[C@@H](COS(=O)(=O)c4ccc([N+](=O)[O-])cc4)OC4CCCCO4)cc3s2)cn1 (some centres unmarked) [FC119S]	remained as a solution	dissolved	undissolved	not dissolved; also recorded: undissolved	undissolved	–	–	–	–
Cc1cn([C@H]2C[C@H](OS(=O)(=O)c3ccc([N+](=O)[O-])cc3)[C@@H](COC(c3ccccc3)(c3ccccc3)c3ccccc3)O2)c(=O)n(C(=O)OC(C)(C)C)c1=O [FLT, 3-N-Boc-5′-O-trityl-3′-O-nosyl-thymidine]	–	–	–	–	–	undissolved	remained as a solution	–	–
CC(=O)OC[C@H]1O[C@@H](OC(C)=O)[C@@H](OS(=O)(=O)C(F)(F)F)[C@@H](OC(C)=O)[C@@H]1OC(C)=O [FDG, 1,3,4,6-tetra-O-acetyl-2-O-trifluoro-methanesulfonyl-beta-D-mannopyranose]	–	dissolved	dissolved	dissolved	undissolved	–	–	precipitated again as solids	–
COC(=O)[C@H]1[C@@H](c2ccc(I)cc2)C[C@@H]2CC[C@H]1[N+]21CCC1.Cc1ccc(S(=O)(=O)[O-])cc1 [FP-CIT, (1′R, 2′S, 3′S, 5′S)-3′-(4-iodophenyl)-2′-(methoxycarbonyl)spiro[azetidine-1,8′-bicyclo[3,2,1]octan]-1-ium p-toluenesulfonate]	–	dissolved	–	dissolved	undissolved	–	–	precipitated again as solids	completely dissolved
